Assay results: PMC10494213 (iScience, 2023)
“Also recorded” adds a separate entry of the source.

Columns and labels:
GABA = settings: zebrafish embryos, CMZ 1, 10, 100 μg/L; cited from earlier work
[1] = system: zebrafish embryos and larvae; settings: 1 μg/L; cited from earlier work
abat = test: Real-time PCR of neurotransmitter-related gene abat; assay type: in vivo, zebrafish; settings: seven days, four concentrations (1, 10, 100, 1000 μg/L) vs control, p<0.05
[2] = Uptake of CMZ in zebrafish muscle during 7-day water exposure; assay type: in vivo, zebrafish (Danio rerio); settings: male, other: water exposure (waterborne); for concentration at 7 d: muscle; for Kp at 7 d: muscle/plasma
Glu = settings: zebrafish embryos, CMZ 1, 10, 100 μg/L; cited from earlier work
spermatozoa = settings: 2.0 and 20 mg/L; cited from earlier work
[3] = system: gamma-aminobutyric acid (GABA); test: GABA level in whole zebrafish by ELISA after 7-day CMZ exposure; assay type: in vivo; settings: seven days of CMZ exposure vs control group (p<0.05; 1000 μg/L p<0.01)
[4] = human; cited from earlier work
[5] = system: acetylcholinesterase (AChE); test: AChE in whole zebrafish by ELISA after 7-day CMZ exposure; assay type: in vivo; settings: 7-day exposure 1, 10, 100, 1000 μg/L vs control group
AChE = settings: muscle (10000 μg/L) and head (10 and 10000 μg/L), exposure of 63 days, p<0.05; cited from earlier work
[6] = cited from earlier work
zebrafish larvae = test: Zebrafish larval motor behavior; assay type: in vivo; settings: 7 days exposure
[7] = Measured fish plasma concentration; assay type: in vivo, zebrafish (Danio rerio); settings: for Measured FPC/Predicted FPC / Measured FPC: 7-day exposure; for Measured FPC: mean ± SD, n = 3
glutamic acid (Glu) = test: Glu level in whole zebrafish by ELISA after 7-day CMZ exposure; assay type: in vivo; settings: seven days of CMZ exposure vs control group (p<0.05; 1000 μg/L p<0.01)
acetylcholine (ACh) = test: ACh level in whole zebrafish by ELISA after 7-day CMZ exposure; assay type: in vivo; settings: 7-day exposure 1, 10, 100, 1000 μg/L vs control group
[8] = EEC 3, 10, 30 μg/L; cited from earlier work
fish = settings: cited from earlier work
[9] = carp, Coote natural Marsh in Canada; cited from earlier work

NC(=O)N1c2ccccc2C=Cc2ccccc21 [CMZ, Carbamazepine]
GABA concentration (GABA): increased | movement and rest percentage of zebrafish embryos and larvae [1]: significantly affected | expression of the abat gene (abat): significantly down-regulated | concentration at 7 d ([2]; 10 μg/L): 35.4 ± 7.9 ng/g | concentration at 7 d ([2]; 100 μg/L): 420 ± 77.5 ng/g | concentration at 7 d ([2]; 1000 μg/L): 2330 ± 127 ng/g | Kp at 7 d ([2]; 10 μg/L): 0.26 ± 0.06 | Kp at 7 d ([2]; 100 μg/L): 0.14 ± 0.03 | Kp at 7 d ([2]; 1000 μg/L): 0.54 ± 0.03 | Glu concentration (Glu): reduced | percentage of spermatozoa motile and velocity (spermatozoa): significantly reduce | GABA level [3]: appreciably increased | maximum HTPC [4]: 12 mg/L | level of AChE [5]: gradually decreased; also recorded: significantly decreased | AChE activity (AChE): considerably increased | Dlipw ([6]; pH 7.4, ref http://www.chemspider.com/Chemical): 2.92 | total movement distance of the larvae (zebrafish larvae; 1000 μg/L, p<0.05): significantly higher than that of the control group | total distance traveled by larvae (zebrafish larvae; 1, 10, 100 μg/L, p>0.05): slightly lower than that of the control group, but there was no significant difference | Measured FPC/Predicted FPC ([7]; external 1 μg/L): 1.84 ± 0.27 | Measured FPC ([7]; external 1 μg/L (nominal)): 25.47 ± 3.78 µg/L | Measured FPC ([7]; external 10 μg/L (nominal)): 1311.10 ± 80.26 µg/L | Measured FPC/Predicted FPC ([7]; external 100 μg/L): 2.14 ± 0.08 | Measured FPC ([7]; external 100 μg/L (nominal)): 2953.30 ± 109.20 µg/L | Measured FPC/Predicted FPC ([7]; external 1000 μg/L): 0.31 ± 0.01 | measured FPC value as share of the predicted value ([7]; external 1000 μg/L): 31.05% | concentration at 7 d ([7]; male, AB, zebrafish, plasma, other: water exposure (waterborne), corresponding FPCs, low ambient exposure 1 and 10 μg/L): 0.0255 to 1.31 µg/mL | ER values ([7]; ratio of HTPC and FSSPC, Equation 3, all exposure concentrations): < 1000 | Glu level (glutamic acid (Glu)): appreciably increased | level of ACh (acetylcholine (ACh)): gradually decreased; also recorded: significantly decreased

CCC(=O)OCC(=O)[C@@]1(OC(=O)CC)[C@@H](C)C[C@H]2[C@@H]3CCC4=CC(=O)C=C[C@]4(C)[C@@]3(Cl)[C@@H](O)C[C@@]21C [Beclomethasone Dipropionate, beclomethasone dipropionate]
log Kow [6]: 3.69

CN[C@H]1CC[C@@H](c2ccc(Cl)c(Cl)c2)c2ccccc21 [Sertraline]
Predicted FPC vs Measured FPC [8]: very close | shelter-seeking behavior (fish; when the FPC exceeded the human therapeutic threshold): statistically significant reductions

O=C(Nc1ccc(Cl)cc1)Nc1ccc(Cl)c(Cl)c1 [triclocarban]
measured BCFs relative to the predicted BCFs [9]: ≤ 3 times

O=C1NC(=O)C(c2ccccc2)(c2ccccc2)N1 [phenytoin]
measured BCFs relative to the predicted BCFs [9]: ≤ 3 times

C#C[C@]1(O)CC[C@H]2[C@@H]3CCC4=CC(=O)CC[C@@H]4[C@H]3CC[C@@]21CC [Levonorgestrel]
log Kow [6]: 3.72

O=C1Nc2ccc(Cl)cc2C(c2ccccc2)=NC1O (stereo not shown) [Oxazepam]
behavior in the novel tank diving test (fish; fish exposed to 4.7 μg/L): statistically significant behavioral effect

CCN(CC)C(=O)c1cccc(C)c1 [N,N-diethyl-m-toluamide]
measured BCFs relative to the predicted BCFs [9]: ≤ 3 times
